Measured values: patent publication US10961222B2, “Chemical compound of isocitrate dehydrogenase inhibitor, and application thereof” (NANJING SANHOME PHARMACEUTICAL CO., LTD., priority 2016, dated 2021)

Tests used:
[1] = biological target: T1, U87-MG cell line of overexpressed mutant IDH2 (R140Q) (Homo sapiens, UniProt P48735, R140Q); assay: Cell activity in vitro: 2-HG in culture supernatant of U87-MG (IDH2-R140Q) cells by LC-MS/MS; assay type: cell-based; conditions: U87-MG (IDH2-R140Q) cells, 72 hours, 2-HG in supernatant; read-out: IC50 (2-HG remaining compared to untreated)
T1 construct: expressed in transfected cells
T1 sequence (P48735 40-452 R140Q): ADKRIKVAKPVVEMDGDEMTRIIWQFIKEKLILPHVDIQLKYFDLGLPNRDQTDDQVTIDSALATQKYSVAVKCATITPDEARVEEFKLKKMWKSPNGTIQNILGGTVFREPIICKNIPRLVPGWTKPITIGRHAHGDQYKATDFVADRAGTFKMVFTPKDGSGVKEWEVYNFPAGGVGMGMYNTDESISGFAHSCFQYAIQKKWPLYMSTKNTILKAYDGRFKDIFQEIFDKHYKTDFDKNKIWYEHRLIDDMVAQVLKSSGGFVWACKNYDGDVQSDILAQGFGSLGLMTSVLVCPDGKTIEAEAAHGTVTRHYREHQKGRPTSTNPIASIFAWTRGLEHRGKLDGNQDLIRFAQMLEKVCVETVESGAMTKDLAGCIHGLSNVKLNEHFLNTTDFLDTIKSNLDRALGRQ
Procedure: 1.2 Cells: human glioblastoma cell line U87-MG, purchased from the American Type Culture Collection (ATCC);
Cell recovery: U87-MG (IDH2-R140Q) cells and U87-MG cells were put into a 37° C. water bath, then transferred to 15 mL of pre-warmed medium, centrifuged at 1000 rpm for 5 minutes, and the medium was discarded. The cells were resuspended in 15 mL of fresh medium, transferred to a T75 flask and cultured in a 37° C. incubator with 5% CO2. After 24 hours, the medium was changed to fresh medium.
Cell passage: The above-mentioned recovered cells were transferred to a 50 mL sterile centrifuge tube, centrifuged at 1000 rpm for 5 minutes, and the medium was discarded. The cells were resuspended evenly and counted. The cell density was adjusted appropriately in a 15 mL fresh medium, and then added to T75 culture flask. The culture flask was incubated in an incubator with 5% CO2 at 37° C.
After cells grown to a relatively high density in the culture dish, the cells were trypsinized, resuspended in medium (MEM+10% FBS), and counted. After adjusting the cell concentration, the resuspended cells were seeded in a 96-well plate at 5×10^3 cells per well. After inoculation, the cells were cultured for 24 hours until the cells adhered. The medium were sucked out, and the medium containing gradient concentration of compound was added, 100 μL per well. The cells were further cultured for 72 hours. The s 20 μL of upernatant was taken and put into a 2 mL 96-well sample-processing plate. 480 μL of dilution solution was added and shaken for mixing, and then centrifuged at 4500 rpm for 5 minutes. 200 μL of supernatant was transferred for LC-MS/MS injection analysis.
Column: Shim-pack XR-ODS 30L*2.0; mobile phase: acetonitrile-0.2% ammonia, 5 mM ammonium acetate aqueous solution; column temperature: 30° C.; flow rate: 0.4 mL/min; gradient elution conditions are as follows: […]
Atmospheric […] chemical ionization (APCI) was used. Source parameters was set as follows: IonSpray Voltage/IS-4500V; auxiliary gas 1 (Ion Source Gas 1/GS 1, N2), 55Arb; auxiliary gas 2 (Ion Source Gas 2, N2), 55Arb; auxiliary gas heating temperature (Temperature/TEM), 500° C.; curtain gas/CUR, 25Arb; collision gas/CAD, N2, 8 Pa.
Multi-ion reaction monitoring (MRM) in negative ion mode (Negative) was used. […] The internal standard (IS) MRM parameters: parent ion (Q 1 Mass), 178.0 Da; daughter ion (Q3 Mass), 149.0 Da; Decluster Potential (DP), −51V; collision voltage (Collision Energy/CE), −17 eV
By determining the 2-HG content in the cell culture supernatant of each well using LC-MS/MS, the mutant enzyme activity (2-HG remaining compared to untreated %) was calculated. The calculation formula: 2-HG remaining compared to untreated %=(Measured 2-HG level—U87-MG control 2-HG level)/(Untreated 2-HG level—U87-MG control 2-HG level)×100. […] Data were processed by GraphPad Prism v5.0 software and fitted to obtain IC50.

[2] = biological target: T2, IDH2-R140Q mutant enzyme (Homo sapiens, UniProt P48735, R140Q); assay: Inhibitory activity of compounds on IDH2-R140Q enzyme in vitro (diaphorase/resazurin fluorescence); assay type: biochemical; conditions: IDH2-R140Q, pre-incubated 16 h with enzyme and NADPH, reaction 1 h with α-ketoglutarate; read-out: R140Q IC50
T2 construct: purchased BPS 71100-1
T2 sequence (P48735 40-452 R140Q): T1 sequence (P48735 40-452 R140Q)
Procedure: Instrument: SpectraMax M3 Multi-Mode Microplate Reader, purchased from Molecular Devices.
In a 96-well plate, 40 μL of reaction buffer containing 2× enzyme (IDH2-WT or IDH2-R140Q) and cofactor (NADP or NADPH) was added to each well of the compound group and the DMSO control group, and 40 μL of reaction buffer containing 2× cofactor (NADP or NADPH) was added to each well of the enzyme-free control group.
20 μL of reaction buffer containing 4× compound to be tested was added to each well of the compound group. The compound was pre-formulated into 200× mother liquor with 100% DMSO; in the final reaction system, the concentration of DMSO was 0.5%. 20 μL of reaction buffer containing DMSO was added to each well of the DMSO control group; in the final reaction system, the concentration of DMSO was 0.5%.
The compound was mixed well with the enzyme and cofactor, and pre-incubated at room temperature for 16 h;
20 μL of reaction buffer containing 4× reaction substrate was added to each well. After mixed uniformly, the mixture was reacted at room temperature for 1 h.
3× termination and detection solution (it was prepared with reaction buffer, the final concentration of Diaphorase was 0.015 mg/mL, and the final concentration of Resazurin was 0.03 mM) was prepared. 40 μL of 3× termination and detection solution was added to each well of the enzyme reaction system. After mixed uniformly, the mixture was incubated at room temperature for 10 min;
Fluorescence values of two wells were obtained and averaged and the activity rate (Activity %) was calculated. The calculation formula: Activity %=(Measured data−Subtract background)/(DMSO Control−Subtract background)×100, wherein “Measured data” is fluorescence value of the compound in the pre-incubated wells, “Subtract background” is the fluorescence value of the enzyme-free control wells, and “DMSO Control” is the fluorescence value in the DMSO pre-incubated wells. Data was processed by GraphPad Prism v5.0 software and fitted to obtain IC50.

[3] = system: U87-MG (IDH2-R140Q) subcutaneous xenograft tumor; assay: Subcutaneous xenograft tumor caused by U87-MG (IDH2-R140Q) mutant cells in vivo: intratumor 2-HG; parameters: species or system BALB/c nude mice; conditions: U87-MG (IDH2-R140Q) subcutaneous xenograft model
From the text: 1.2 Animals: BALB/c nude mice, 6-7 weeks old, female, 18-22 g, purchased from Nanjing Jinlaichang Company.
U87-MG (IDH2-R140Q) cells and U87-MG cells (wild type) were expanded, and cells in logarithmic growth phase were used for tumor inoculation in vivo. 16 mice were inoculated subcutaneously into the right lower back of the body at an amount of 2×10^6 cells/mouse (the volume ratio of cell suspension to Matrigel was 1:0.8).
The non-mutation control group was nude mice inoculated with U87-MG cells, and the test compound groups and vehicle control group were nude mice inoculated with U87-MG (IDH2-R140Q) cells.
Each group was intragastrically administered with a corresponding concentration of the compound solution, the administration volume was 100 μL/10 g body weight, and the control group was administered the same volume of blank vehicle.
After 10 days of administration, the mice were sacrificed. The tumors were exfoliated, homogenized, and the 2-HG content in the tumor was examined.
The 2-HG concentration in the homogenate of each animal tumor in each group was determined by LC-MS/MS. The percentage (2-HG %) was calculated; the calculation formula is as follows 2-HG %=(2-HG concentration of administration group tumor−2-HG concentration of U87-MG control group tumor)/(2-HG concentration of U87−MG(IDH2-R140Q) control group tumor−2-HG concentration of U87-MG control group tumor)×100%.

Row | IC50 [1] | IC50 [2] | SMILES | ability of lowering 2-HG level compared with positive compound AG-221 [3]
1 | 17.1 nM | 5.8 nM | CN(C)Nc1nc(Nc2ccnc(C(F)(F)F)c2)nc(-c2cccc(C(F)(F)F)n2)n1 [Example 29] | 
2 | 21 nM | 15 nM | FC(F)(F)c1cc(Nc2nc(-c3cccc(C(F)(F)F)n3)nc(N3CCOCC3)n2)ccn1 [Example 4, 4-Morpholinyl-6-(6-(trifluoromethyl)pyridin-2-yl)-N-(2-(trifluoromethyl)pyridin-4-yl)-1,3,5-triazin-2-amine] | 
3 |  |  | O[C@]1(C(F)(F)F)CCN(c2nc(Nc3ccnc(C(F)(F)F)c3)nc(-c3cccc(C(F)(F)F)n3)n2)C1 [Example 22A, (R)-4-(3-trifluoromethyl-3-hydroxypyrrolidin-1-yl)-6-(6-(trifluoromethyl)pyridin-2-yl)-N-(2-(trifluoromethyl)pyridin-4-yl)-1,3,5-triazin-2-amine] | substantially superior
4 | 31.2 nM | 12.5 nM | CC(C)ONc1nc(Nc2ccnc(C(F)(F)F)c2)nc(-c2cccc(C(F)(F)F)n2)n1 [Example 27] | 
5 | 9.8 nM | 8.3 nM | FC1(F)CN(c2nc(Nc3ccnc(C(F)(F)F)c3)nc(-c3cccc(C(F)(F)F)n3)n2)C1 [Example 35, 4-(3,3-Difluoroazetidin-1-yl)-6-(6-(trifluoromethyl)pyridin-2-yl)-N-(2-(trifluoromethyl)pyridin-4-yl)-1,3,5-triazin-2-amine] | 
6 | 5.1 nM | 8.8 nM | CC(Oc1nc(Nc2ccnc(C(F)(F)F)c2)nc(-c2cccc(C(F)(F)F)n2)n1)C(F)(F)F (stereo not shown) [Example 44, 4-(6-(Trifluoromethyl)pyridin-2-yl)-N-(2-(trifluoromethyl)pyridin-4-yl)-6-((1,1,1-trifluoroisopropyl-2-yl)oxy)-1,3,5-triazin-2-amine] | 
7 | 36.1 nM | 26.5 nM | OC1CN(c2nc(Nc3ccnc(C(F)(F)F)c3)nc(-c3cccc(C(F)(F)F)n3)n2)C1 [Example 32] | 
8 | 10.2 nM | 29.2 nM | CC1(O)CN(c2nc(Nc3ccnc(C(F)(F)F)c3)nc(-c3cccc(C(F)(F)F)n3)n2)C1 [Example 33] | 
9 | 59.1 nM | 25.2 nM | OC1(C(F)(F)F)CCN(c2nc(Nc3ccnc(C(F)(F)F)c3)nc(-c3cccc(C(F)(F)F)n3)n2)CC1 [Example 38, 4-(Trifluoromethyl)-1-(4-(6-(trifluoromethyl)pyridin-2-yl)-6-((2-(trifluoromethyl)pyridin-4-yl)amino)-1,3,5-triazin-2-yl)piperidin-4-ol] | 
10 | 38.1 nM | 21.3 nM | CCN(CC(C)(C)O)c1nc(Nc2ccnc(C(F)(F)F)c2)nc(-c2cccc(C(F)(F)F)n2)n1 [Example 31, 1-(Ethyl(4-(6-(trifluoromethyl)pyridin-2-yl)-6-((2-(trifluoromethyl)pyridin-4-yl)amino)-1,3,5-triazin-2-yl)amino)-2-methylpropan-2-ol] | 
11 | 10.1 nM | 16.1 nM | CC(C)(O)CCc1nc(Nc2ccnc(C(F)(F)F)c2)nc(-c2cccc(C(F)(F)F)n2)n1 [Example 41, 2-Methyl-4-(4-(6-(trifluoromethyl)pyridin-2-yl)-6-((2-(trifluoromethyl)pyridin-4-yl)amino)-1,3,5-triazin-2-yl)-3-butan-2-ol] | 
12 | 8.1 nM | 5.1 nM | CC(C)Oc1nc(Nc2ccnc(C(F)(F)F)c2)nc(-c2cccc(C(F)(F)F)n2)n1 [Example 42, 4-Isopropoxy-6-(6-(trifluoromethyl)pyridin-2-yl)-N-(2-(trifluoromethyl)pyridin-4-yl)-1,3,5-triazin-2-amine] | 
13 | 33.1 nM |  | CC(C)(O)/C=C/c1nc(Nc2ccnc(C(F)(F)F)c2)nc(-c2cccc(C(F)(F)F)n2)n1 [Example 40, 2-Methyl-4-(4-(6-(trifluoromethyl)pyridin-2-yl)-6-((2-(trifluoromethyl)pyridin-4-yl)amino)-1,3,5-triazin-2-yl)-3-buten-2-ol] | 
14 | 9.6 nM | 5.8 nM | FC(F)(F)COc1nc(Nc2ccnc(C(F)(F)F)c2)nc(-c2cccc(C(F)(F)F)n2)n1 [Example 43, 4-(2,2,2-Trifluoroethoxy)-6-(6-(trifluoromethyl)pyridin-2-yl)-N-(2-(trifluoromethyl)pyridin-4-yl)-1,3,5-triazin-2-amine] | 

Row | SMILES | IC50 [1] | IC50 [2] | ability of lowering 2-HG level compared with positive compound AG-221 [3]
15 | CC(C)(C)ONc1nc(Nc2ccnc(C(F)(F)F)c2)nc(-c2cccc(C(F)(F)F)n2)n1 [Example 28, 4-(Tert-Butoxyamino)-6-(6-(trifluoromethyl)pyridin-2-yl)-N-(2-(trifluoromethyl)pyridin-4-yl)-1,3,5-triazin-2-amine] | 25.1 nM | 12.2 nM | 
